These results are taken from US20240373891A1, “SWEETENER BLEND COMPRISING THAUMATIN AND MOGROSIDES” (NOMAD BIOSCIENCE GMBH, priority 2021, published 2024).

The nature of assay [1]: Round table evaluation of sweetness intensity (SEV) against sucrose reference samples. Particulars: mean of test panelists. The format is in vivo. On the procedure: • Round table evaluations were performed with test panelists. Equal sweet 5 SEV concentrations in neutral pH water were made for Thaumatin II (purity greater than 90%), Mogroside V, and Siamenoside I. These equal sweet solutions were also mixed at 50% of Thaumatin II and 50% Mogroside V or Siamenoside I and compared to the individual components. The components of the test compositions are described in the below tables. The mixed compositions were calculated using the Beidler mixture equation for the sweeteners. The Beidler mixture equation for sweeteners is as follows: […]
The concentration of each component in the mixture in ppm is divided by SEV (c/R) and is plotted against concentration, c. The […]. The y-intercept of the linear regression multiplied by Rmaxis the half-maximal sweetness concentration, 1/K. Rmax and 1/K are the two parameters used in the Beidler equation. Mixtures were tasted in comparison to reference samples for the panelists to determine SEV values. References samples were 3%, 4%, 5%, 6%, 7%, and 8% sucrose in neutral pH water. The test samples were served in 2 ounce soufflé cups (approximately 60 ml) coded with 3-digit codes at room temperature. A two minute wait period between samples was enforced. Water and unsalted crackers was available for the panelists to clear their palates before and during testing. Results were collected for calculating approximate SEV level of each test sample. • The test products analyzed in this experiment are described below in Table 1.

Assay [2] in a line: Round table qualitative assessment of quality of sweetness and undesirable attributes, scale 1-10. Particulars: for Off taste (lower better) / Quality of sweetness (higher better): scale of 1-10, 6 panelists; for Quality of sweetness (higher better): 5% sucrose control. Format: in vivo. The method, then: • Round table evaluations were performed with 6 test panelists. Equal sweet 5 SEV concentrations in neutral pH water were made for Thaumatin II (purity greater than 90%), Mogroside V, and Siamenoside I. These equal sweet solutions were also mixed at 50% of Thaumatin II and 50% Mogroside V or Siamenoside I and compared to the individual components. All solutions were coded and blinded from panelists. Panelists were asked to provide a qualitative assessment on a scale of 1-10 of the quality of sweetness (10 being the highest quality of sweetness) and undesirable attributes (10 being most undesirable) of each solution using a 5% sucrose solution as a control.

The mark [3] stands for this setting: summary of Example 2, compared with sucrose.

On to `C[C@H](CC[C@@H](O[C@@H]1O[C@H](CO[C@@H]2O[C@H](CO)[C@@H](O)[C@H](O)[C@H]2O)[C@@H](O)[C@H](O)[C@H]1O[C@@H]1O[C@H](CO)[C@@H](O)[C@H](O)[C@H]1O)C(C)(C)O)[C@H]1CC[C@@]2(C)[C@@H]3CC=C4[C@@H](CC[C@H](O[C@@H]5O[C@H](CO[C@@H]6O[C@H](CO)[C@@H](O)[C@H](O)[C@H]6O)[C@@H](O)[C@H](O)[C@H]5O)C4(C)C)[C@]3(C)[C@H](O)C[C@]12C` [Mogroside V], for which, in assay [1] (250 ppm in neutral pH water), the “Sweetness intensity determined, SEV” value amounted to 5.3 SEV. Besides, in assay [2] (250 ppm in neutral pH water), the “Off taste (lower better)” value was 3.3 and the “Quality of sweetness (higher better)” value was 7.5. For the same molecule, the “Sweetness quality and off taste, in words” value in assay [2] (summary of Example 2) is given as “very mild off notes were detected”. Further, the “Sweetness onset, in words” value in assay [2] (setting [3]) is “rapid”.

Regarding `C[C@H](CC[C@@H](O[C@@H]1O[C@H](CO[C@@H]2O[C@H](CO)[C@@H](O)[C@H](O)[C@H]2O)[C@@H](O)[C@H](O)[C@H]1O[C@@H]1O[C@H](CO)[C@@H](O)[C@H](O)[C@H]1O)C(C)(C)O)[C@H]1CC[C@@]2(C)[C@@H]3CC=C4[C@@H](CC[C@H](O[C@@H]5O[C@H](CO)[C@@H](O)[C@H](O)[C@H]5O)C4(C)C)[C@]3(C)[C@H](O)C[C@]12C` [Siamenoside I], the “Sweetness intensity determined, SEV” value in assay [1] (250 ppm in neutral pH water) came to 6.0 SEV. In assay [2] (250 ppm in neutral pH water), the “Off taste (lower better)” value was 2.6 and the “Quality of sweetness (higher better)” value is given as 7.8. In assay [2] (summary of Example 2), the “Sweetness quality and off taste, in words” value was “very mild off notes were detected”. Also, in assay [2] (setting [3]), the “Sweetness onset, in words” value is on record as “rapid”.

B1: Thaumatin II: protein of SEQ ID NO: 2, purity greater than 90%, recombinantly expressed in plants (protein, listed as Thaumatococcus daniellii)
chain: ATFEIVNRCSYTVWAAASKGDAALDAGGRQLNSGESWTINVEPGTKGGKIWARTDCYFDDSGRGICRTGDCGGLLQCKRFGRPPTTLAEFSLNQYGKDYIDISNIKGFNVPMDFSPTTRGCRGVRCAADIVGQCPAKLKAPGGGCNDACTVFQTSEYCCTTGKCGPTEYSRFFKRLCPDAFSYVLDKPTTVTCPGSSNYRVTFCPTA
Regarding B1, the “Sweetness intensity determined, SEV” value in assay [1] (7 ppm in neutral pH water) is 4.8 SEV. For the same molecule, in assay [2] (7 ppm in neutral pH water), the “Off taste (lower better)” value was determined as 4.9 and the “Quality of sweetness (higher better)” value stood at 5.3. Moreover, the “Sweetness quality and off taste, in words” value in assay [2] (summary of Example 2) is on record as “clean sweetness without any off taste”. Further, in assay [2] (setting [3]), the “Sweet aftertaste, in words” value is listed as “lasted longer” and the “Sweetness onset, in words” value is listed as “slightly delayed”.
